The text below walks through data of patent US20240182526A1, “COMPOSITIONS AND METHODS FOR MODULTING INFLAMMATORY AND DEGENERATIVE DISORDER” (University of Southern California, priority 2021, published 2024).

Test [1] has as its system pNF-κB p65. The test can be described thus: Western blot of pNF-κB p65 in pig articular chondrocytes. The conditions noted are these: for protein levels of pNF-κB p65 after OSM stimulation: pig articular chondrocytes, 24 hours. It is filed as cell-based. The method, then: (§1) For standard western blot, treated and non-treated cells were lysed in RIPA Lysis and Extraction Buffer (Pierce, Rockford, IL) containing protease inhibitors (Pierce) followed by sonication with a 15-second pulse at a power output of 2 using the VirSonic 100 (SP Industries Company, Warminster, PA). Protein concentrations were determined by BCA protein assay (Pierce). Proteins were resolved with SDS-PAGE utilizing 4-15% Mini-PROTEAN TGX Precast Gels and transferred to Trans-Blot Turbo Transfer Packs with a 0.2-μm pore-size nitrocellulose membrane. The SDS-PAGE running buffer, 4-15% Mini-PROTEAN TGX Precast Gels, Trans-Blot Turbo Transfer Packs with a 0.2-μm pore-size nitrocellulose membrane was purchased from Biorad (Hercules, CA). Nitrocellulose membranes were blocked in 5% nonfat milk in 0.05% (v/v) Tween 20 (PBST) (Corning, Manassas, VA). Membranes were then incubated with primary antibodies p-gp130 Y814 (Evseenko lab, AbClonal), p-AKT (cat #4060, Cell Signaling), p-ERK 1/2 (cat #9106, Cell Signaling), p-Y416-SRC (cat #1246F, Novus Biologicals), p-gp130 (cat #1453R, Bioss USA) and p-NFκBp65 (cat #8242, Cell Signaling), and/or YAP1 (cat #4912, Cell Signaling). Histone H3 (cat #9515, Cell Signaling) was used as loading control. After washing in PBS containing 0.05% (v/v) Tween 20 (PBST), membranes were incubated with rabbit (cat #31460, Thermo Scientific) or mouse IgG-HRP (cat #31430, Thermo Scientific) secondary antibodies. After washing, membranes were developed with the Clarity Western ECL Blotting Substrate (Hercules, CA). Quantification of blots was performed using ImageJ 1.44 followed by Prism9 for analysis.
(In western blotting, separated proteins are transferred to a membrane and probed.)

The subject of test [2] is ADAMTS4, ADAMTS5 and MMP13 transcription. As to the kind of experiment: qPCR of matrix-degrading genes in OSM-stimulated pig articular chondrocytes. The test is classed as cell-based. The conditions noted are these: 48 hours. As for the experimental part: (§2) Quantitative Real-Time PCR. Power SYBR Green (Applied Biosystems) RT-PCR amplification and detection was performed using an Applied Biosystems Step One Plus Real-Time PCR machine. The comparative Ct method for relative quantification (2-ΔΔCt) was used to quantitate gene expression. TBP (TATA-box binding protein) was used for gene normalization and expressed relative to a calibrator (sample in each set with lowest expression). Q-PCR for was conducted using the following primers: human: TBP forward, 5′ GATGGACGTTCGGTTTAGG 3′ (SEQ ID NO:28); TBP reverse, 5′ AGCAGCACAGTACGAGCAA 3′ (SEQ ID NO:29), MMP13 forward, 5′ […] 3′(SEQ ID NO:30); MMP13 reverse, 5′ GAACCCCGCATCTTGGCTT 3′ (SEQ ID NO:31), ADAMTS5 forward 5′ […] 3′ (SEQ ID NO:32); ADAMTS5 reverse, 5′ […] 3′ (SEQ ID NO:33), ADAMTS4 forward 5′ […] 3′ (SEQ ID NO:34); ADAMTS4 reverse, 5′ […] 3′ (SEQ ID NO:35), Collagen II forward, 5′ […] 3′ (SEQ ID NO:36); Collagen II reverse 5′ […] 3′ (SEQ ID NO:37); Aggrecan forward, 5′ AGGCAGCGTGATCCTTACC 3′ (SEQ ID NO:38); Aggrecan reverse, 5′ […] 3′ (SEQ ID NO:39). Cells were treated with 10 ng/mL OSM and/or with 5 μM SRC (SU6656) inhibitor, 10 ng/mL OSM and/or 50 ng/mL WT/F814 plasmids; 10 ng/mL OSM and/or 100 or 300 ug/mL of peptide QQpYF (Evseenko lab, Thermo Scientific); 10 uM R805 and/or 10 ng/mL OSM.

Test [3] deals with gp130 receptor signaling. Conditions: previous studies; cited from earlier work.
The test system of test [4] is adult and pig articular cartilage. Conditions: cited from earlier work.
Test [5] has as its system rat medial meniscectomy and cartilage surface injury models. Conditions: cited from earlier work.
Test [6] concerns gp130 and pSRC. The test can be described thus: Co-immunoprecipitation of complex formation between gp130 and pSRC in pig articular chondrocytes. The test is classed as cell-based. The conditions noted are these: pig articular chondrocytes with or without OSM, 4 and 24 hours. As for the experimental part: IP Western, SDS-PAGE and Western blot analysis. For transfections of gp130 wild type (WT) (InVivoGen) and gp130 mutant plasmids (Thermo Scientific), cells were plated 24 h prior to transfection to produce monolayers that were 60% confluent and these were transfected by using Turbo DNAfectin 3000 (cat #G3000, Lambda Biotech) according to the manufacturer's protocol. 72h after transfection, cells were maintained in DMEM (10% FBS, 1% PSA) and were either left untreated or were stimulated with IL-6 (10 ng/mL) and/or OSM (10 ng/mL) for 24 h before cell harvest and protein extraction. For immunoprecipitation assays, cell lysates were incubated with Protein G Agarose (cat #20398, Pierce) and anti-Flag antibody (cat #2368, Cell Signaling) at 4° C. overnight. The immune complexes were sedimented, washed and separated by SDS-PAGE (see below) and further analyzed by Western blot using p-SRC (pY416-SRC) (cat #1246F, Novus Biologicals) or NEMO (cat #18474-1-AP, Proteintech) antibodies and normalized to gp130 (cat #bs-1459R, Bioss) or total SRC (cat #2123, Cell Signaling). For R805 treatment, the immune complexes were sedimented, washed and separated by SDS-PAGE and further analyzed by Western blot using OSMR (cat #ab85575, Abcam), LIFR (Santa cat #515337, Cruz Biotechnology) or p-SRC (pY416-SRC) (Novus Biologicals, cat #1246F). Histone H3 (cat #9715, Cell Signaling), gp130 (cat #bs-1459R, Bioss), total SRC (cat #2123, Cell Signaling) or Flag antibody (cat #14739, Cell Signaling) were used as loading controls.
(§3) The studies delineate that gp130 Y814 regulates SRC downstream signaling; since SRC is known to associate with gp130, it was hypothesized that gp130 and SRC are capable of physically interacting on Y814 and hindering this interaction will prevent SRC from signaling. In order to impede this interaction, experiments were performed using an innovative peptide library screen with short and overlapping peptides mimicking the motif of gp130 around Y814 that were individually tested for pSRC downregulation; these peptides ranged from 4-15 amino acids. The peptides contained a protein sequence stretch of consecutive amino acids surrounding gp130 Y814 residue. To test their efficacy, pig articular chondrocytes were stimulated with or without OSM in presence or absence of the peptides followed by co-immunoprecipitation to determine interaction and western blot detecting pSRC activity. […] Due to sequence specificity, the peptide is capable of discriminating among other gp130 regions serving as a competitive inhibitor.

In test [7] the test system is pSRC. The test can be described thus: Western blot of pSRC in pig articular chondrocytes. The test is classed as cell-based. The conditions noted are these: for protein levels of pSRC after OSM stimulation: pig articular chondrocytes, 4 and 24 hours. As for the experimental part: as §1, §3
In test [8] the test system is ADAMTS4/5, MMP13, COL2 and ACAN transcription. As to the kind of experiment: qPCR of catabolic and anabolic genes in human adult OA articular chondrocytes. It is filed as cell-based. The conditions noted are these: 48 hours. The method, then:
as §2
On the technique in general: In qPCR the cycle at which signal appears reflects the starting amount.

Test [9] concerns cleaved ACAN and COL2 neoepitopes. As to the kind of experiment: Neoepitope assay on pig articular cartilage explants stimulated with OSM. It is filed as cell-based. Conditions: 72 hours, normalized to wet weight. As for the experimental part: Neoepitope analysis. WT and F814 mouse articular cartilage explants were treated with or without OSM (10 ng/mL). Pig articular cartilage explants were stimulated with or without OSM (10 ng/mL) and treated with or without peptide QQpYF (100 μg/mL or 300 μg/mL). For R805 treatment, pig articular cartilage explants were stimulated with or without OSM (10 ng/mL) and treated with or without R805 (0.01, 0.1, 1 or 10 μM). The explants were then digested for 2 hr at 37° C. with 0.01 units chondroitinase ABC (Sigma Aldrich, St. Louis, MO). Samples were then dialyzed with ultrapure water for 24 hr at 4° C., freeze dried, dissolved in RIPA Lysis and Extraction Buffer (Pierce, IL) containing protease inhibitors (Pierce) followed by sonication. Proteins were separated and analyzed by Western blot using primary antibodies against aggrecan (cat #NB100-74350, Novus Biologicals,) and collagen II neoepitopes (cat #50-1035, Ibex). Wet weight of explants was used as loading control.

The target in test [10] is T1, pSRC (Homo sapiens, UniProt P12931).
T1 construct: from tissue; host or cells: human synovium
The test can be described thus: Western blot of pSRC in human synovium stimulated with OSM. The test is classed as cell-based. Conditions: with or without OSM, 24 hours. As for the experimental part: as §1, with “After washing in PBS containing 0.05% (v/v) Tween 20 (PBST), membranes were incubated with rabbit (cat #31460, Thermo Scientific) or mouse IgG-HRP (cat #31430, Thermo Scientific) secondary antibodies. After washing, membranes were developed with the Clarity Western ECL Blotting Substrate (Hercules, CA).” left out

Test [11] relates to pNF-kB p65. The test can be described thus: Western blot of pNF-kB p65 in human synovium stimulated with OSM. It is filed as cell-based. Conditions: with or without OSM, 24 hours. As for the experimental part: as §1, with “After washing in PBS containing 0.05% (v/v) Tween 20 (PBST), membranes were incubated with rabbit (cat #31460, Thermo Scientific) or mouse IgG-HRP (cat #31430, Thermo Scientific) secondary antibodies. After washing, membranes were developed with the Clarity Western ECL Blotting Substrate (Hercules, CA).” left out

Where [12] appears, read: pig articular chondrocytes treated with peptides for 24 hours, no OSM.

“Also recorded” adds a separate entry of the source. Where no end group is shown, it is not given here. [ ]: non-standard residue; d: D form. pY = N[C@@H](Cc1ccc(OP(=O)(O)O)cc1)C(=O)O

`CN(C)S(=O)(=O)c1ccc2c(c1)/C(=C/c1cc3c([nH]1)CCCC3)C(=O)N2` [SU6656, reference compound]: the “protein levels of pNF-κB p65 after OSM stimulation” value in [1] is on record as “can be blocked by SRC inhibition”. Further, the “OSM-induced transcription of matrix-degrading genes (ADAMTS4, ADAMTS5, MMP13), qPCR” value in [2] was “can be blocked by SRC inhibition”.
For the molecule `Brc1ccc(Nc2nc(-c3ccccc3)cs2)cc1` [RCGD 423], in test [3], the “STAT3 signaling and downstream MYC” value is “highly activate STAT3 signaling and its downstream target, proto-oncogene MYC”; the “activation of MAPK/ERK and NF-κB pathways” value was “prevents activation of MAPK/ERK and NF-κB pathways”. For the same molecule, in test [4], the articular cartilage degeneration entry was “protects adult and pig articular cartilage from degeneration”. In test [5], the cartilage regeneration result is “promotes cartilage regeneration”.
For “QQ(PY)F (QQYF) [Peptide P2A, 4 amino acid SRC-targeting interfering peptide, Gln-Gln-phosphoTyr-Phe]”, the “complex formation between gp130 and pSRC (gp130-SRC interaction)” value is “most efficacious at physically hindering gp130-SRC protein-protein interaction” in test [6]; “most efficacious at physically hindering gp130-SRC protein-protein interaction” in test [6] (listed as QQ[pY]F); “prevents physical interaction of gp130 and SRC” in test [6] (listed as QQpYF). For the same molecule, the “protein levels of pSRC after OSM stimulation” value in test [7] is “decreasing SRC and NF-κB activation; also recorded: significant effect on decreasing SRC and NF-κB signaling; also recorded: inhibits SRC activity”; in test [7] (listed as QQ[pY]F), “decreasing pSRC activation”; in test [7] (listed as QQpYF), “inhibits activation of SRC downstream of gp130”. In addition, the “protein levels of pNF-κB p65 after OSM stimulation” value in test [1] was “decreasing SRC and NF-κB activation; also recorded: significant effect on decreasing SRC and NF-κB signaling”. Moreover, the “biosynthesis (COL2 and ACAN transcription), qPCR” value in [8] is given as “promotes biosynthesis”; in test [8] (listed as QQpYF) it was “increased”. Besides, the “transcription of catabolic enzymes (ADAMTS4/5 and MMP13), qPCR” value is recorded as “decreased transcription of catabolic enzymes; also recorded: inhibits transcription of matrix degrading genes” in test [8] and “markedly lower” in [8] (listed as QQpYF). For the same molecule, the “matrix degeneration: levels of cleaved ACAN and COL2 neoepitopes” value was “prevented matrix degeneration in pig cartilage explants; also recorded: sustained prevention of catabolism; also recorded: prevents degeneration in pig cartilage explants; also recorded: dose dependent” in test [9]; “decrease of aggrecanase and collagenase activity” in test [9] (listed as QQpYF).
On to PRQQ[pY]FKQ [Peptide 5], for which the “endogenous protein levels of phosphorylated c-SRC (pSRC)” value in test [7] (setting [12]) was “inhibits endogenous SRC and NF-kB protein expression”. Moreover, the “endogenous protein levels of NF-kB p65” value in test [1] (setting [12]) was “inhibits endogenous SRC and NF-kB protein expression”. In addition, in test [10], the “protein levels of pSRC” value was “inhibits SRC and NF-kB protein expression”. Further, in [11], the “protein levels of pNF-kB p65” value is “inhibits SRC and NF-kB protein expression”.
